Structures are written as SMILES. pIC50: −log10 of the molar value.

For the test, the target named is hCB1R (Homo sapiens, UniProt P21554). Description: In vitro functional assay (FLIPR, intracellular Ca2+) with recombinant HEK293 cells, CB1. The arrangement: expressed in transfected cells; host or cells: HEK293. It is filed as cell-based. To be noted: recombinant HEK293 cells expressing CB1 and Galpha16; 20 min preincubation, then reference agonist; Ca2+ change; read-out: hCB1R: FLIPR; IC50. The source says: In Vitro Functional Assays with Recombinant Cells:

Sequence of hCB1R (P21554 whole entry): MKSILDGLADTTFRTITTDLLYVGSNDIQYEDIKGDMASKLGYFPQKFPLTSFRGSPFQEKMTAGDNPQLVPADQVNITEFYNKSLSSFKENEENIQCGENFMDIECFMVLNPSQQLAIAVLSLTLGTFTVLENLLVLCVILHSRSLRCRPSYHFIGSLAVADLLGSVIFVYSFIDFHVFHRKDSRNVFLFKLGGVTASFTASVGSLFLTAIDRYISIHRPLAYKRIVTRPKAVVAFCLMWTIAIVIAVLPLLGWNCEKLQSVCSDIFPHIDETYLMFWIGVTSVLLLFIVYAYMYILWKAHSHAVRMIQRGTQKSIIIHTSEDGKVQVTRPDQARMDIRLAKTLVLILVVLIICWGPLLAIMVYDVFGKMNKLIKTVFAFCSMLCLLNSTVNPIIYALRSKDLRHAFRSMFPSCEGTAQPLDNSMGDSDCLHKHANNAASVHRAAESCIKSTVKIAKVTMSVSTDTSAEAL

Turning to `CC1(C)C(=O)N(c2ccc(C#N)c(C(F)(F)F)c2)C(=O)N1Cc1ccccc1Nc1ccc(C#N)c(C(F)(F)F)c1` [Example 3, 4-{3-[2-(4-cyano-3-trifluoromethylphenylamino)benzyl]-4,4-dimethyl-2,5-dioxoimidazolidin-1-yl}-2-trifluoromethylbenzonitrile], the pIC50 was 7.66. The figure for `CC1(C)C(=O)N(c2ccc(C#N)c(C(F)(F)F)c2)C(=O)N1Cc1ccccc1Nc1ccc(Cl)cc1` [Example 4, 4-{3-[2-(4-chlorophenylamino)benzyl]-4,4-dimethyl-2,5-dioxoimidazolidin-1-yl}-2-trifluoromethylbenzonitrile] is 8.40. The figure for `CC1(C)C(=O)N(c2ccc(C#N)c(C(F)(F)F)c2)C(=O)N1Cc1ccccc1Nc1ccc(S(C)(=O)=O)cc1Cl` [Example 14, 4-{3-[2-(2-chloro-4-methylsulfonylphenylamino)benzyl]-4,4-dimethyl-2,5-dioxoimidazolidin-1-yl}-2-trifluoromethylbenzonitrile] is 6.97. `CC1(C)C(=O)N(c2ccc(C#N)c(C(F)(F)F)c2)C(=O)N1Cc1ccccc1Nc1ccc(Cl)c(Cl)c1` [Example 20, 4-{3-[2-(3,4-dichlorophenylamino)benzyl]-4,4-dimethyl-2,5-dioxoimidazolidin-1-yl}-2-trifluoromethylbenzonitrile]: the pIC50 is 7.68. As for `CC1(C)C(=O)N(c2ccc(C#N)c(C(F)(F)F)c2)C(=O)N1Cc1ccccc1Nc1ccccc1Cl` [Example 21, 4-{3-[2-(2-chlorophenylamino)benzyl]-4,4-dimethyl-2,5-dioxoimidazolidin-1-yl}-2-trifluoromethylbenzonitrile], the pIC50 is 8.00.

Turning to `CC1(C)C(=O)N(c2ccc(C#N)c(C(F)(F)F)c2)C(=O)N1Cc1ccccc1Nc1cccc(Cl)c1` [Example 22, 4-{3-[2-(3-chlorophenylamino)benzyl]-4,4-dimethyl-2,5-dioxoimidazolidin-1-yl}-2-trifluoromethylbenzonitrile], the pIC50 is 7.34. In the case of `CC1(C)C(=O)N(c2ccc(C#N)c(C(F)(F)F)c2)C(=O)N1Cc1ccccc1Nc1ccc(C#N)cc1` [Example 33, 4-{3-[2-(4-cyanophenylamino)benzyl]-4,4-dimethyl-2,5-dioxoimidazolidin-1-yl}-2-trifluoromethylbenzonitrile] it was 8.40; in that of `CC1(C)C(=O)N(c2ccc(C#N)c(C(F)(F)F)c2)C(=O)N1Cc1c(Cl)cc(Cl)cc1Nc1ccc(F)cc1` [Example 35, 4-{3-[2,4-Dichloro-6-(4-fluorophenylamino)benzyl]-4,4-dimethyl-2,5-dioxoimidazolidin-1-yl}-2-trifluoromethylbenzonitrile], 7.82. The figure for `CC1(C)C(=O)N(c2ccc(C#N)c(C(F)(F)F)c2)C(=O)N1Cc1c(Cl)cc(Cl)cc1Nc1ccc(Cl)cc1` [Example 37, 4-{3-[2,4-dichloro-6-(4-chlorophenylamino)benzyl]-4,4-dimethyl-2,5-dioxoimidazolidin-1-yl}-2-trifluoromethylbenzonitrile] is 7.68; for `CC1(C)C(=O)N(c2ccc(C#N)c(C(F)(F)F)c2)C(=O)N1Cc1cc(Cl)cc(Cl)c1Nc1ccc(F)cc1` [Example 38, 4-{3-[3,5-Dichloro-2-(4-fluorophenylamino)benzyl]-4,4-dimethyl-2,5-dioxoimidazolidin-1-yl}-2-trifluoromethylbenzonitrile] it is 7.15.

As to `CC1(C)C(=O)N(c2ccc(C#N)c(C(F)(F)F)c2)C(=O)N1Cc1cc(Cl)cc(Cl)c1Nc1ccc(F)cc1F` [Example 39, 4-{3-[3,5-dichloro-6-(2,4-difluorophenylamino)benzyl]-4,4-dimethyl-2,5-dioxoimidazolidin-1-yl}-2-trifluoromethylbenzonitrile], the pIC50 is 7.16. The figure for `CC1(C)C(=O)N(c2ccc(C#N)c(C(F)(F)F)c2)C(=O)N1Cc1cc(Cl)cc(Cl)c1Nc1ccc(Cl)cc1` [Example 40, 4-{3-[3,5-dichloro-6-(4-chlorophenylamino)benzyl]-4,4-dimethyl-2,5-dioxoimidazolidin-1-yl}-2-trifluoromethylbenzonitrile] is 7.52; for `CC1(C)C(=O)N(c2ccc(C#N)c(C(F)(F)F)c2)C(=O)N1Cc1cc(Cl)ccc1Nc1ccc(F)cc1` [Example 41, 4-{3-[5-Chloro-2-(4-fluorophenylamino)benzyl]-4,4-dimethyl-2,5-dioxoimidazolidin-1-yl}-2-trifluoromethylbenzonitrile] it is 7.55; for `CC1(C)C(=O)N(c2ccc(C#N)c(C(F)(F)F)c2)C(=O)N1Cc1cccc(Cl)c1Nc1ccc(Cl)cc1` [Example 43, 4-{3-[5-chloro-6-(4-chlorophenylamino)benzyl]-4,4-dimethyl-2,5-dioxoimidazolidin-1-yl}-2-trifluoromethylbenzonitrile] it is 7.11. The figure for `CC1(C)C(=O)N(c2ccc(C#N)c(C(F)(F)F)c2)C(=O)N1Cc1ccccc1Nc1ccccc1F` [Example 44, 4-{3-[2-(2-fluorophenylamino)benzyl]-4,4-dimethyl-2,5-dioxoimidazolidin-1-yl}-2-trifluoromethylbenzonitrile] is 8.15; for `CC1(C)C(=O)N(c2ccnc(C(F)(F)F)c2)C(=O)N1Cc1ccccc1Nc1ccccc1` [Example 65, 5,5-Dimethyl-1-(2-phenylaminobenzyl)-3-(2-trifluoromethylpyridin-4-yl)imidazolidine-2,4-dione] it is 6.84; for `COC(=O)c1ccc(Nc2ccccc2CN2C(=O)N(c3ccc(C#N)c(C(F)(F)F)c3)C(=O)C2(C)C)c(F)c1` [Example 72, methyl 4-{2-[3-(4-cyano-3-trifluoromethylphenyl)-5,5-dimethyl-2,4-dioxoimidazolidin-1-ylmethyl]phenylamino}-3-fluorobenzoate] it is 7.62. The figure for `CC1(C)C(=O)N(c2ccc(C#N)c(C(F)(F)F)c2)C(=O)N1Cc1ccccc1Nc1ccc(C(=O)O)cc1F` [Example 80, 4-{2-[3-(4-cyano-3-trifluoromethylphenyl)-5,5-dimethyl-2,4-dioxoimidazolidin-1-ylmethyl]phenylamino}-3-fluorobenzoic acid] is 7.48.

In the case of `CC1(C)C(=O)N(c2ccc(C#N)c(C(F)(F)F)c2)C(=O)N1Cc1ccccc1Nc1ccc(N)c(F)c1` [Example 95, 4-{3-[2-(4-Amino-3-fluorophenylamino)benzyl]-4,4-dimethyl-2,5-dioxoimidazolidin-1-yl}-2-trifluoromethylbenzonitrile], the pIC50 is 7.51.

Regarding `COC(=O)c1ccc(Nc2cc(Cl)cc(Cl)c2CN2C(=O)N(c3ccc(C#N)c(C(F)(F)F)c3)C(=O)C2(C)C)cc1` [Example 104, methyl 4-{3,5-dichloro-2-[3-(4-cyano-3-trifluoromethylphenyl)-5,5-dimethyl-2,4-dioxoimidazolidin-1-ylmethyl]phenylamino}benzoate], the pIC50 was 7.82.

Regarding `CC1(C)C(=O)N(c2ccc(C#N)c(C(F)(F)F)c2)C(=O)N1Cc1c(Cl)cc(Cl)cc1Nc1ccc(C(=O)O)cc1` [Example 105, 4-{3,5-dichloro-2-[3-(4-cyano-3-trifluoromethylphenyl)-5,5-dimethyl-2,4-dioxoimidazolidin-1-ylmethyl]phenylamino}benzoic acid], the pIC50 is 7.31. The figure for `COC(=O)c1ccc(Nc2cc(C(F)(F)F)ccc2CN2C(=O)N(c3ccc(C#N)c(C(F)(F)F)c3)C(=O)C2(C)C)cc1` [Example 106, methyl 4-{2-[3-(4-cyano-3-trifluoromethylphenyl)-5,5-dimethyl-2,4-dioxoimidazolidin-1-ylmethyl]-5-trifluoromethylphenylamino}benzoate] is 7.92; for `CC1(C)C(=O)N(c2ccc(C#N)c(C(F)(F)F)c2)C(=O)N1Cc1ccc(C(F)(F)F)cc1Nc1ccc(C(=O)O)cc1` [Example 107, 4-{2-[3-(4-cyano-3-trifluoromethylphenyl)-5,5-dimethyl-2,4-dioxoimidazolidin-1-ylmethyl]-5-trifluoromethylphenylamino}benzoic acid] it is 6.95; for `CC1(C)C(=O)N(c2ccc(C#N)c(C(F)(F)F)c2)C(=O)N1Cc1ccccc1Nc1ccc(N)cc1` [Example 113, 4-{3-[2-(4-Aminophenylamino)benzyl]-4,4-dimethyl-2,5-dioxoimidazolidin-1-yl}-2-trifluoromethylbenzonitrile] it is 8.40.

For `CC(C)(C)OC(=O)c1ccc(Nc2cc(F)ccc2CN2C(=O)N(c3ccc(C#N)c(C(F)(F)F)c3)C(=O)C2(C)C)cc1` [Example 125, tert-butyl 4-{2-[3-(4-cyano-3-trifluoromethylphenyl)-5,5-dimethyl-2,4-dioxoimidazolidin-1-ylmethyl]-5-fluorophenylamino}benzoate], the pIC50 was 6.96. The figure for `CC(C)Oc1ccc(Nc2ccccc2CN2C(=O)N(c3ccc(C#N)c(C(F)(F)F)c3)C(=O)C2(C)C)cc1` [Example 127, 4-{3-[2-(4-isopropoxyphenylamino)benzyl]-4,4-dimethyl-2,5-dioxoimidazolidin-1-yl}-2-trifluoromethylbenzonitrile] is 8.15. On to `COc1ccc(CN2C(=O)N(c3ccc(C#N)c(C(F)(F)F)c3)C(=O)C2(C)C)c(Nc2ccc(C(=O)O)cc2)c1` [Example 130, 4-{2-[3-(4-cyano-3-trifluoromethylphenyl)-5,5-dimethyl-2,4-dioxoimidazolidin-1-ylmethyl]-5-methoxyphenylamino}benzoic acid], for which the pIC50 was 7.49.

Regarding `CC1(C)C(=O)N(c2ccc(C#N)c(C(F)(F)F)c2)C(=O)N1Cc1ccc(Cl)cc1Nc1ccc(C(=O)O)cc1` [Example 131, 4-{5-chloro-2-[3-(4-cyano-3-trifluoromethylphenyl)-5,5-dimethyl-2,4-dioxoimidazolidin-1-ylmethyl]phenylamino}benzoic acid], the pIC50 is 7.82.

As to `CC1(C)C(=O)N(c2ccc(C#N)c(C(F)(F)F)c2)C(=O)N1Cc1ccc(F)cc1Nc1ccc(C(=O)O)cc1` [Example 133, 4-{2-[3-(4-cyano-3-trifluoromethylphenyl)-5,5-dimethyl-2,4-dioxoimidazolidin-1-ylmethyl]-5-fluorophenylamino}benzoic acid], the pIC50 is 8.00.

The record behind these values is patent US7759366B2 (Sanofi-Aventis, priority 2006, dated 2010).
